In the CheMixHub viscosity set:

Assay: xn = mol fraction of the nth substance listed

Cc1ccccc1N + CC(=O)O
viscosity [mPa·s], 100 kPa
Details | x1 = 0.1051 | x1 = 0.1945 | x1 = 0.2862 | x1 = 0.3854 | x1 = 0.4952 | x1 = 0.5994 | x1 = 0.6874 | x1 = 0.7658 | x1 = 0.8879
303.15 K | 1.3 | 1.51 | 1.73 | 1.96 | 2.2 | 2.43 | 2.62 | 2.79 | 3.04
308.15 K | 1.2 | 1.38 | 1.56 | 1.75 | 1.96 | 2.15 | 2.31 | 2.44 | 2.65
313.15 K | 1.11 | 1.27 | 1.42 | 1.59 | 1.76 | 1.93 | 2.06 | 2.17 | 2.34
318.15 K | 1.02 | 1.15 | 1.28 | 1.42 | 1.57 | 1.7 | 1.81 | 1.91 | 2.04

O=P([O-])(O)O.[Na+] + O
viscosity [mPa·s]
Details | 298.15 K | 303.15 K | 308.15 K | 313.15 K
101 kPa, x1 = 0.0018 | 0.9216 | 0.8373 | 0.7482 | –
101 kPa, x1 = 0.0054 | 0.9881 | 0.887 | 0.8017 | –
101 kPa, x1 = 0.0089 | 1.077 | 0.9691 | 0.8669 | –
101 kPa, x1 = 0.012 | 1.17 | 1.053 | 0.9301 | –
101 kPa, x1 = 0.016 | 1.284 | 1.151 | 1.008 | –
101.32 kPa, x1 = 0.1245 | 20.44 | – | – | –
101.32 kPa, x1 = 0.1772 | – | – | – | 28.59

C1CC[NH2+]C1.CCCCCCCC(=O)[O-] + CO
viscosity [mPa·s], 101 kPa
Details | x1 = 0.1021 | x1 = 0.2025 | x1 = 0.3023 | x1 = 0.3896 | x1 = 0.5185 | x1 = 0.5972 | x1 = 0.7086 | x1 = 0.7895 | x1 = 0.844
293.15 K | 4.58 | 7.4 | 10.73 | 14.46 | 22.6 | 28 | 38.68 | 47.37 | 55.2
298.15 K | 3.6 | 6.53 | 10.37 | 13.1 | 19.44 | 24.57 | 33.84 | 41.18 | 48.18
303.15 K | 3.6 | 6 | 8.9 | 10.82 | 15.84 | 20.9 | 27.67 | 34.45 | 38.6
308.15 K | 4.08 | 5.69 | 8.64 | 10.07 | 15.33 | 19.02 | 24.21 | 29.56 | 33.63
313.15 K | 4 | 5.4 | 7.17 | 9.15 | 13.26 | 15.69 | 21.37 | 25.39 | 28.41

O=S1(=O)CCCC1 + c1ccccc1
viscosity [mPa·s]
Details | 303.15 K | 313.15 K | 323.15 K
101 kPa, x1 = 0.0944 | 0.7133 | 0.6194 | 0.5441
101 kPa, x1 = 0.1855 | 0.8992 | 0.7737 | 0.6751
101 kPa, x1 = 0.2522 | 1.074 | 0.9112 | 0.7919
101 kPa, x1 = 0.2849 | 1.162 | 0.9889 | 0.8556
101 kPa, x1 = 0.3829 | 1.504 | 1.267 | 1.085
101 kPa, x1 = 0.4835 | 1.976 | 1.648 | 1.396
101 kPa, x1 = 0.5905 | 2.694 | 2.202 | 1.855
101 kPa, x1 = 0.6841 | 3.563 | 2.879 | 2.388
101 kPa, x1 = 0.7917 | 5.014 | 3.996 | 3.267
101 kPa, x1 = 0.8956 | 7.129 | 5.619 | 4.505
101.3 kPa, x2 = 0.1417 | 6.075 | – | 3.928
101.3 kPa, x2 = 0.2777 | 4.003 | – | 2.676
101.3 kPa, x2 = 0.3972 | 2.826 | – | 1.95
101.3 kPa, x2 = 0.5062 | 2.066 | – | 1.468
101.3 kPa, x2 = 0.6063 | 1.571 | – | 1.137
101.3 kPa, x2 = 0.6976 | 1.2 | – | 0.8791
101.3 kPa, x2 = 0.7823 | 0.9625 | – | 0.717
101.3 kPa, x2 = 0.8602 | 0.786 | – | 0.5933
101.3 kPa, x2 = 0.9327 | 0.652 | – | 0.5029

O=S1(=O)CCCC1 + CCCCOC(C)=O
viscosity [mPa·s], 101 kPa
Details | x1 = 0.3402 | x1 = 0.7887 | x2 = 0.0164
303.15 K | – | 4.275 | –
308.15 K | 1.145 | – | 7.925

O=S1(=O)CCCC1 + OCCOCCOCCO
303.15 K, 101 kPa
Details | viscosity [mPa·s]
x1 = 0.0435 | 27.75
x1 = 0.0985 | 25.88
x1 = 0.2083 | 22.54
x1 = 0.2999 | 20.02
x1 = 0.3966 | 17.63
x1 = 0.4473 | 16.49
x1 = 0.4985 | 15.45
x1 = 0.5498 | 14.47
x1 = 0.5855 | 13.85
x1 = 0.6913 | 12.24
x1 = 0.8065 | 10.9
x1 = 0.8984 | 10.18
x1 = 0.9458 | 10.08

Cc1ccc(O)cc1 + CCCCNCCCC
298.16 K, 101 kPa
Details | viscosity [mPa·s]
x1 = 0.4487 | 3.678
x1 = 0.4877 | 5.428
x1 = 0.5489 | 7.609
x1 = 0.5951 | 11.91
x1 = 0.6192 | 13.62
x1 = 0.6457 | 16.41
x1 = 0.6924 | 28.49
x1 = 0.7098 | 33.96
x1 = 0.7329 | 43.07
x1 = 0.7632 | 61.06
x1 = 0.7959 | 79.23
x1 = 0.833 | 89.65
x1 = 0.8754 | 78.76
x1 = 0.902 | 60.59
x1 = 0.9421 | 33.43
x2 = 0.001967 | 12.1
x2 = 0.003431 | 17.88
x2 = 0.015 | 18.21
